Experimental data from patent US8232240B2, “Inhibitors of enveloped virus infectivity” (priority 2005, dated 2012).
Entries after “also recorded” stand apart in the source; their conditions may differ. Where a SMILES comes first, the peptide text is derived from it. The star is where a group is joined. Cbz = O=C(OCc1ccccc1)*; CHN2 = [N-]=[N+]=C*; tBu = CC(C)(C)*

Columns and labels:
EboV Zaire GP = type: cell-based
VSV G = type: cell-based, vesicular stomatitis virus (VSV)
Cote d'Ivoire GPΔMuc = type: cell-based, Ebola Cote d'Ivoire
Sudan GPΔMuc = type: cell-based, Ebola Sudan
Reston GPΔMuc = type: cell-based, Ebola Reston
Marburg-GP = type: cell-based, Marburg virus
EboV-Zaire (1995 strain) = type: cell-based
[1] = tested on: Marburg (Musoke strain) virus; type: cell-based
CatB = type: cell-based
CatL = biological target: T1, CatL (Chlorocebus aethiops, UniProt Q9GKL8); type: cell-based
T1 construct: CatB and Cathepsin L (CatL) enzymatic activities in CA074-treated cells; endogenous in cells; host or cells: Vero cells

[2] = tested on: cell-cell fusion mediated by Nipah virus glycoproteins F and G; type: cell-based; settings: 24 hours

T1 sequence (Q9GKL8 114-333): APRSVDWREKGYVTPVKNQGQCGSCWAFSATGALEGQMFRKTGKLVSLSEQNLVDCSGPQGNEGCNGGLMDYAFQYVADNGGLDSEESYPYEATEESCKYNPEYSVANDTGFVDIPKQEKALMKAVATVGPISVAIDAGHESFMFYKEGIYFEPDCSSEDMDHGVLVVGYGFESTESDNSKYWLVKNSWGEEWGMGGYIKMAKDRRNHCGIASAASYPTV

For `CCCNC(=O)[C@H]1O[C@@H]1C(=O)N[C@H](C(=O)N1CCC[C@H]1C(=O)O)[C@@H](C)CC` [CA074], the “EboV GP-dependent infection of Vero cells” value (EboV Zaire GP) was “inhibited infection”, the “block of infection, Ebola Zaire” value (EboV Zaire GP) was ~99% and the “reduction of infection in the absence of detectable CatB activity” value (EboV Zaire GP) was ~99.9%. The “VSV G-dependent infection” value (VSV G) was “Neither compound inhibited”, the “block of infection, Cote d'Ivoire” value (Cote d'Ivoire GPΔMuc) was ~99% and the “inhibition of infection, Sudan” value (Sudan GPΔMuc) was 90%. For the same compound, the “infectivity of Reston” value (Reston GPΔMuc) was “unaffected”, the “infectivity of Marburg” value (Marburg-GP) was “unaffected” and the “expression of cell-associated GP1” value (EboV-Zaire (1995 strain)) was “markedly reduced”. The “inhibition of growth of Marburg virus on Vero cells” value [1] was “not each alone”, the “approximate level of cellular CatB activity (B %)” value (CatB) was ~10% and the “approximate level of cellular CatL activity (L %)” value (CatL) was ~100%.

For `CC(C)(C)Oc1ccc(C[C@H](NC(=O)[C@H](Cc2ccccc2)NC(=O)OCc2ccccc2)C(=O)C=[N+]=[N-])cc1` [FYdmk, Z-Phe-Tyr-(tBu)-diazomethylketone] (Cbz-Phe-Tyr(tBu)-CHN2), the “EboV GP-dependent infection of Vero cells” value (EboV Zaire GP) was “inhibited infection”, the “infection, Zaire” value (EboV Zaire GP) was “blocked” and the “VSV G-dependent infection” value (VSV G) was “Neither compound inhibited”. For the same compound, the “infection, Cote d'Ivoire” value (Cote d'Ivoire GPΔMuc) was “blocked”, the “infection, Sudan” value (Sudan GPΔMuc) was “blocked” and the “infection, Reston” value (Reston GPΔMuc) was “blocked”. The “infection, Marburg” value (Marburg-GP) was “blocked”, the “inhibition of growth of Marburg virus on Vero cells” value [1] was “not each alone” and the “approximate level of cellular CatB activity (B %)” value (CatB) was ~10%. For the same compound, the “inhibition of CatB activity” value (CatB) was “can inhibit”, the “approximate level of cellular CatL activity (L %)” value (CatL) was ~0% and the “inhibition of CatL activity” value (CatL) was “can inhibit”. For the same compound, the “cell-cell fusion by Nipah virus glycoproteins (syncytia)” value [2] was “dramatically reduces cell-cell fusion; also recorded: inhibits cell-cell fusion”.
